Reference: PMC3463757 (2012)

Assays:
ROCK2 = ROCK2 (Homo sapiens, UniProt O75116); assay: Invitrogen Z-Lyte FRET kinase assay, […] peptide substrate; format: biochemical
ROCK1 = ROCK1 (Homo sapiens, UniProt Q13464); assay: as above; format: biochemical
Chain of ROCK1 (Q13464 2-1354): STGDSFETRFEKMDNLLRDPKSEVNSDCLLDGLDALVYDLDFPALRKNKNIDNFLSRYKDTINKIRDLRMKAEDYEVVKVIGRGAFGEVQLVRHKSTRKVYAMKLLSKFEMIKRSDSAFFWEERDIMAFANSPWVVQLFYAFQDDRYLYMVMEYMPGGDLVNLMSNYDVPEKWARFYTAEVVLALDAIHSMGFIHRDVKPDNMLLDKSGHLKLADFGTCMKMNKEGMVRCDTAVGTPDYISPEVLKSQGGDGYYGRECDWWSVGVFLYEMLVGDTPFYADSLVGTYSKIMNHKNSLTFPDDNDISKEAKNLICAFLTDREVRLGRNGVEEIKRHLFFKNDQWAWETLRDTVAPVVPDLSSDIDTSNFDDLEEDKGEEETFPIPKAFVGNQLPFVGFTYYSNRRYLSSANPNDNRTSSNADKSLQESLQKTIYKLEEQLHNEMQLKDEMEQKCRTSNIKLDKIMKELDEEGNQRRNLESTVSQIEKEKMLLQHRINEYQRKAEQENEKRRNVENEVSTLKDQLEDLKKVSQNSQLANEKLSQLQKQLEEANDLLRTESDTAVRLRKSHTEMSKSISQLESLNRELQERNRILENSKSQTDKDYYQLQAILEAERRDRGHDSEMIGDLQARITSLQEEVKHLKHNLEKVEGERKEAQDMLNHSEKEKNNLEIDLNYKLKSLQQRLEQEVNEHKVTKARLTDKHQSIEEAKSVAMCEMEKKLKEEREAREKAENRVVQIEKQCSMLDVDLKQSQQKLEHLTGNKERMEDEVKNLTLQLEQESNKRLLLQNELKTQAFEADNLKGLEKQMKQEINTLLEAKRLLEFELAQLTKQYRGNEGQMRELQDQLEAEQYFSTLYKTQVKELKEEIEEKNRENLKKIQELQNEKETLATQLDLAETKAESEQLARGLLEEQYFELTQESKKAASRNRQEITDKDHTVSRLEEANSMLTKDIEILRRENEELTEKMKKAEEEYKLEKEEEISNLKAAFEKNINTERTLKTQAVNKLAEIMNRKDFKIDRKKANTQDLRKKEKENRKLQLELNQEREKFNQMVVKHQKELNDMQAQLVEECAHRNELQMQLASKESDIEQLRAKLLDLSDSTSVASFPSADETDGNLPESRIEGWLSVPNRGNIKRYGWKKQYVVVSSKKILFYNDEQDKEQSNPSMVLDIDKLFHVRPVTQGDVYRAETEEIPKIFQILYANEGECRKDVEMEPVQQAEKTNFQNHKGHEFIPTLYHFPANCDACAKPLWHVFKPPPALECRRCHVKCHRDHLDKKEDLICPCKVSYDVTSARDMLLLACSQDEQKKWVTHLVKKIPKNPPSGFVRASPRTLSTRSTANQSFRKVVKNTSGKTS

Chain of ROCK2 (O75116 whole entry): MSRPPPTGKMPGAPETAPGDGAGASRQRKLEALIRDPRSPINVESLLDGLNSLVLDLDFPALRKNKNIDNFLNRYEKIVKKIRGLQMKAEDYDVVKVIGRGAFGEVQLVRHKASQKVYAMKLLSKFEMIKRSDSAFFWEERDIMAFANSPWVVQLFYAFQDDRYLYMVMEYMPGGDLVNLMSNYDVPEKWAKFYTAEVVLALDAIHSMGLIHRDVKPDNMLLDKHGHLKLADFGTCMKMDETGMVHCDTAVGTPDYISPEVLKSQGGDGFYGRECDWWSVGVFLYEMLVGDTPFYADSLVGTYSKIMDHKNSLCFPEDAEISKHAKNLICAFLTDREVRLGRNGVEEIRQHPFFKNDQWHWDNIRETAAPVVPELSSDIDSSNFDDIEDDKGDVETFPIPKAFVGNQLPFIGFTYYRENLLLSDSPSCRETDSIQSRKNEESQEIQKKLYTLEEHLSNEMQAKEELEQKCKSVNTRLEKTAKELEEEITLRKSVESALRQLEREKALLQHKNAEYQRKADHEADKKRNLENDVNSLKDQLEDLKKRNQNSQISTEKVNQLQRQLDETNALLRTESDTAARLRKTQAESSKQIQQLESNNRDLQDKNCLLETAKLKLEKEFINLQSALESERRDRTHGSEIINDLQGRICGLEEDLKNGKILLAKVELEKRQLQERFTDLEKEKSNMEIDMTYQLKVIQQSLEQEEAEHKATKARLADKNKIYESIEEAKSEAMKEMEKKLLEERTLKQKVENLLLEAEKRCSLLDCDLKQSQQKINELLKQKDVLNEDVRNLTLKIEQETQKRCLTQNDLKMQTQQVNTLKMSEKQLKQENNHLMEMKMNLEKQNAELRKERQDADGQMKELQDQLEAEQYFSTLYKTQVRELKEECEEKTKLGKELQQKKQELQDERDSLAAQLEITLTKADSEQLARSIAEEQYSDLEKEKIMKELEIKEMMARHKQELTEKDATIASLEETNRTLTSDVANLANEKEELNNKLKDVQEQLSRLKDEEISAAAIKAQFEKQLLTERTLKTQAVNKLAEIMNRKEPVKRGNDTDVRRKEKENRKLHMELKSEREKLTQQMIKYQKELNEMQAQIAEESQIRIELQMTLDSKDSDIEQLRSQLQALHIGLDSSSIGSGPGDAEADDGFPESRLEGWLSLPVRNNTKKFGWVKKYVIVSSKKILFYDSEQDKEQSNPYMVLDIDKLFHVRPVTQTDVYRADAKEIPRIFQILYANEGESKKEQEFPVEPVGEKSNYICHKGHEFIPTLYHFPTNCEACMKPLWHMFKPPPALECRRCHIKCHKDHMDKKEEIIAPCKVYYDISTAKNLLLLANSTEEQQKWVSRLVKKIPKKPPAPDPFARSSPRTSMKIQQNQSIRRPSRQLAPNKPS

IC50 (ROCK2): 8 µM | IC50 (ROCK1): 34 µM
Substance: RKI-1313
